Assay results reported in PMC5421785, “Citrullination only infrequently impacts peptide binding to HLA class II MHC” (PLoS ONE, 2017).
Read-outs that look alike come from different tables or passages of the source. Square brackets hold non-standard residues; d marks the D form. Ends that are not written are not given here. Peptide text beside a SMILES is read from it. Cit = NC(=O)NCCC[C@H](N)C(=O)O

Legend:
HLA-DRB1*04:01 = molecular target: T1, HLA-DRB1*04:01 (Homo sapiens, UniProt P01903+P01911, A100K/A169T/F76Y/I96L/K127E/L162R/M171V/N62H/P40V/Q125Y/R42H/S133A/S149N/S66Y/V115G/V209L/W38E); experiment: HLA class II peptide binding, inhibition of radiolabeled peptide binding to purified MHC
T1 construct: EBV transformed homozygous cell lines were used as sources of MHC molecules; endogenous in cells; host or cells: EBV transformed homozygous cell lines

HLA-DRB1*01:01 = molecular target: T2, HLA-DRB1*01:01 (Homo sapiens, UniProt P01903+P01911, A100R/D57E/F55L/F60I/F76Y/I96L/L162R/M171V/P40L/Q125E/R42F/V115G/Y59C); experiment: as above
T2 construct: EBV transformed homozygous cell lines were used as sources of MHC molecules; endogenous in cells; host or cells: EBV transformed homozygous cell lines

[1] = citrullinated 15-mer peptide (X = citrulline), purified HLA-DRB1*04:01, read-out: DRB1*04:01 binding capacity, Cit peptide (IC50 nM)
[2] = citrullinated 15-mer peptide (X = citrulline), purified HLA-DRB1*01:01, read-out: DRB1*01:01 binding capacity, Cit peptide (IC50 nM)
[3] = citrullinated 15-mer (X), purified MHC, inhibition of radiolabeled peptide binding, dash = IC50 >40,000 nM, read-out: DRB1*04:01 binding capacity, Cit peptide (IC50 nM)
[4] = citrullinated 15-mer (X), purified MHC, inhibition of radiolabeled peptide binding, dash = IC50 >40,000 nM, read-out: DRB1*01:01 binding capacity, Cit peptide (IC50 nM)
[5] = wild-type (unmodified Arg) 15-mer peptide, purified HLA-DRB1*04:01, read-out: DRB1*04:01 binding capacity, WT peptide (IC50 nM)
[6] = wild-type (unmodified Arg) 15-mer peptide, purified HLA-DRB1*01:01, read-out: DRB1*01:01 binding capacity, WT peptide (IC50 nM)
[7] = ratio of WT IC50 to Cit IC50, >1 = citrullination increases binding

Compound	IC50 (HLA-DRB1*04:01; [1]) [nM]	IC50 (HLA-DRB1*01:01; [2]) [nM]	IC50 (HLA-DRB1*04:01; [3]) [nM]	IC50 (HLA-DRB1*01:01; [4]) [nM]	also measured
CC[C@H](C)[C@H](NC(=O)CNC(=O)[C@@H]1CCCN1)C(=O)N[C@@H](CC(=O)O)C(=O)N[C@@H](CCSC)C(=O)N[C@@H](CO)C(=O)N[C@@H](C)C(=O)N[C@@H](Cc1ccccc1)C(=O)N[C@@H](C)C(=O)NCC(=O)N[C@@H](CC(C)C)C(=O)NCC(=O)N1CCC[C@H]1C(=O)N[C@@H](CCCNC(N)=O)C(=O)N[C@@H](CCC(=O)O)C(=O)O [PGIDMSAFAGLGPXE] (H-PGIDMSAFAGLGP[Cit]E-OH)	12900	122	–	–	–
CC(C)C[C@H](NC(=O)[C@H](CCCNC(=N)N)NC(=O)[C@@H](NC(=O)[C@H](C)NC(=O)[C@H](CO)NC(=O)[C@H](CO)NC(=O)[C@H](CCCNC(N)=O)NC(=O)[C@@H](NC(=O)[C@H](C)NC(=O)[C@H](Cc1ccc(O)cc1)NC(=O)[C@@H](NC(=O)CNC(=O)CNC(=O)[C@@H]1CCCN1C(=O)[C@@H](N)CO)C(C)C)[C@@H](C)O)C(C)C)C(=O)O [SPGGVYATXSSAVRL] (H-SPGGVYAT[Cit]SSAVRL-OH)	–	–	329	6.6	–
N=C(N)NCCC[C@H](NC(=O)[C@H](CCC(=O)O)NC(=O)CNC(=O)[C@H](CCCNC(N)=O)NC(=O)[C@@H]1CCCN1C(=O)CN)C(=O)NCC(=O)N[C@@H](Cc1ccccc1)C(=O)N1CCC[C@H]1C(=O)NCC(=O)N[C@@H](CCC(=O)O)C(=O)N[C@@H](CCCNC(=N)N)C(=O)NCC(=O)N[C@@H](CO)C(=O)N1CCC[C@H]1C(=O)O [GPXGERGFPGERGSP] (H-GP[Cit]GERGFPGERGSP-OH)	> 40000	23400	–	–	–
CC(C)C[C@H](NC(=O)CNC(=O)[C@@H](N)CC(=O)O)C(=O)N[C@@H](C)C(=O)NCC(=O)N1CCC[C@H]1C(=O)N[C@@H](CCCCN)C(=O)NCC(=O)N[C@@H](C)C(=O)N1CCC[C@H]1C(=O)NCC(=O)N[C@@H](CCC(=O)O)C(=O)N[C@@H](CCCNC(N)=O)C(=O)NCC(=O)N1CCC[C@H]1C(=O)O [DGLAGPKGAPGEXGP] (H-DGLAGPKGAPGE[Cit]GP-OH)	> 40000	1120	–	–	–
GPTGVTGPKGARGAQ [Collagen 876 WT]	–	–	–	–	IC50 (HLA-DRB1*04:01; [5]): > 40000 nM; IC50 (HLA-DRB1*01:01; [6]): 952 nM
N=C(N)NCCC[C@H](NC(=O)[C@H](CCC(=O)O)NC(=O)CNC(=O)[C@H](CCCNC(=N)N)NC(=O)[C@@H]1CCCN1C(=O)CN)C(=O)NCC(=O)N[C@@H](Cc1ccccc1)C(=O)N1CCC[C@H]1C(=O)NCC(=O)N[C@@H](CCC(=O)O)C(=O)N[C@@H](CCCNC(N)=O)C(=O)NCC(=O)N[C@@H](CO)C(=O)N1CCC[C@H]1C(=O)O [GPRGERGFPGEXGSP] (H-GPRGERGFPGE[Cit]GSP-OH)	> 40000	31100	–	–	–
CC(C)C[C@H](NC(=O)[C@H](C)NC(=O)[C@H](C)NC(=O)[C@@H](N)[C@@H](C)O)C(=O)N[C@@H](CCCNC(=N)N)C(=O)N[C@@H](CC(=O)O)C(=O)N[C@H](C(=O)N[C@@H](CCCNC(N)=O)C(=O)N[C@@H](CCC(N)=O)C(=O)N[C@@H](CCC(N)=O)C(=O)N[C@@H](Cc1ccc(O)cc1)C(=O)N[C@@H](CCC(=O)O)C(=O)N[C@@H](CO)C(=O)N[C@H](C(=O)N[C@@H](C)C(=O)O)C(C)C)C(C)C [TAALRDVXQQYESVA] (H-TAALRDV[Cit]QQYESVA-OH)	–	–	7160	896	–
CC(C)C[C@H](NC(=O)[C@H](CC(=O)O)NC(=O)[C@H](CC(C)C)NC(=O)[C@H](CCCNC(=N)N)NC(=O)[C@H](C)NC(=O)[C@H](CC(C)C)NC(=O)[C@H](CO)NC(=O)[C@H](C)NC(=O)[C@H](CC(N)=O)NC(=O)[C@H](CC(=O)O)NC(=O)[C@@H](NC(=O)[C@H](CC(=O)O)NC(=O)[C@H](CCC(N)=O)NC(=O)[C@H](CCCNC(N)=O)NC(=O)[C@@H](N)Cc1ccccc1)C(C)C)C(=O)O [FXQDVDNASLARLDL] (H-F[Cit]QDVDNASLARLDL-OH)	–	–	280	7990	–
CC(C)[C@H](NC(=O)[C@H](CCCNC(N)=O)NC(=O)CNC(=O)[C@H](C)NC(=O)[C@H](C)NC(=O)CNC(=O)[C@@H]1CCCN1C(=O)[C@H](Cc1ccccc1)NC(=O)CNC(=O)[C@@H](N)[C@@H](C)O)C(=O)NCC(=O)N1CCC[C@H]1C(=O)N1CCC[C@H]1C(=O)NCC(=O)N[C@@H](CO)C(=O)O [TGFPGAAGXVGPPGS] (H-TGFPGAAG[Cit]VGPPGS-OH)	> 40000	3470	–	–	–
CSCC[C@H](NC(=O)[C@H](CCC(=O)O)NC(=O)[C@H](CCCNC(=N)N)NC(=O)[C@H](CCSC)NC(=O)[C@H](CCC(N)=O)NC(=O)[C@H](CCCNC(N)=O)NC(=O)[C@@H](N)CCC(=O)O)C(=O)N[C@@H](CCC(=O)O)C(=O)N[C@@H](CCC(=O)O)C(=O)N[C@@H](CC(N)=O)C(=O)N[C@@H](Cc1ccccc1)C(=O)N[C@@H](C)C(=O)N[C@H](C(=O)N[C@@H](CCC(=O)O)C(=O)N[C@@H](C)C(=O)O)C(C)C [EXQMREMEENFAVEA] (H-E[Cit]QMREMEENFAVEA-OH)	1160	5960	–	–	–
CC[C@H](C)[C@H](NC(=O)[C@H](CC(=O)O)NC(=O)[C@H](CCC(=O)O)NC(=O)[C@H](C)NC(=O)[C@H](CC(C)C)NC(=O)[C@H](CC(N)=O)NC(=O)[C@@H](N)CC(=O)O)C(=O)N[C@@H](CCSC)C(=O)N[C@@H](CCCNC(=N)N)C(=O)N[C@@H](CC(C)C)C(=O)N[C@@H](CCCNC(N)=O)C(=O)N[C@@H](CCC(=O)O)C(=O)N[C@@H](CCCCN)C(=O)N[C@@H](CC(C)C)C(=O)N[C@@H](CCC(N)=O)C(=O)O [DNLAEDIMRLXEKLQ] (H-DNLAEDIMRL[Cit]EKLQ-OH)	–	–	> 40000	1610	–
CC(C)C[C@H](NC(=O)[C@H](CO)NC(=O)[C@H](CCCNC(N)=O)NC(=O)[C@H](CO)NC(=O)[C@@H](NC(=O)[C@H](CO)NC(=O)[C@@H]1CCCN1)[C@@H](C)O)C(=O)N[C@@H](Cc1ccc(O)cc1)C(=O)N[C@@H](C)C(=O)N[C@@H](CO)C(=O)N[C@@H](CO)C(=O)N1CCC[C@H]1C(=O)NCC(=O)NCC(=O)N[C@H](C(=O)O)C(C)C [PSTSXSLYASSPGGV]	–	–	2520	524	–
CC(C)C[C@H](NC(=O)[C@H](CC(N)=O)NC(=O)[C@@H](NC(=O)[C@H](CCC(=O)O)NC(=O)[C@H](CCCNC(N)=O)NC(=O)[C@H](CC(C)C)NC(=O)[C@H](CC(N)=O)NC(=O)[C@@H](N)CC(C)C)[C@@H](C)O)C(=O)N[C@@H](CC(=O)O)C(=O)N[C@@H](CO)C(=O)N[C@@H](CC(C)C)C(=O)N1CCC[C@H]1C(=O)N[C@@H](CC(C)C)C(=O)N[C@H](C(=O)N[C@@H](CC(=O)O)C(=O)O)C(C)C [LNLXETNLDSLPLVD]	4340	69	–	–	–
C[C@H](NC(=O)CNC(=O)[C@H](CCC(N)=O)NC(=O)[C@@H]1CCCN1C(=O)CNC(=O)[C@@H]1CCCN1C(=O)[C@@H]1CCCN1C(=O)CNC(=O)[C@H](CCCNC(N)=O)NC(=O)[C@@H]1CCCN1C(=O)CNC(=O)[C@@H]1CCCN1C(=O)[C@H](Cc1ccccc1)NC(=O)CNC(=O)[C@@H]1CCCN1)C(=O)O [PGFPGPXGPPGPQGA] (H-PGFPGP[Cit]GPPGPQGA-OH)	–	–	–	–	IC50 (HLA-DRB1*04:01; citrullinated 15-mer peptide (X = citrulline), […], read-out: DRB1*04:01 binding capacity, Cit peptide (IC50 nM)): 37800 nM; IC50 (HLA-DRB1*01:01; citrullinated 15-mer peptide (X = citrulline), […], read-out: DRB1*01:01 binding capacity, Cit peptide (IC50 nM)): > 40000 nM
CC[C@H](C)[C@H](NC(=O)[C@H](C)NC(=O)[C@H](CC(=O)O)NC(=O)[C@H](C)NC(=O)[C@H](CC(C)C)NC(=O)[C@H](CO)NC(=O)[C@@H](N)Cc1ccccc1)C(=O)N[C@@H](CC(N)=O)C(=O)N[C@H](C(=O)N[C@@H](CCC(=O)O)C(=O)N[C@@H](Cc1ccccc1)C(=O)N[C@@H](CCCCN)C(=O)N[C@@H](CC(N)=O)C(=O)N[C@H](C(=O)N[C@@H](CCCNC(N)=O)C(=O)O)[C@@H](C)O)[C@@H](C)O [FSLADAINTEFKNTX] (H-FSLADAINTEFKNT[Cit]-OH)	–	–	22600	41	–
C[C@H](NC(=O)CNC(=O)[C@@H]1CCCN1C(=O)[C@H](CO)NC(=O)CNC(=O)[C@H](CCC(=O)O)NC(=O)[C@@H](N)CCCNC(N)=O)C(=O)N[C@@H](CC(=O)O)C(=O)NCC(=O)N1CCC[C@H]1C(=O)N1CCC[C@H]1C(=O)NCC(=O)N[C@@H](CCCNC(=N)N)C(=O)N[C@@H](CC(=O)O)C(=O)NCC(=O)O [XEGSPGADGPPGRDG] (H-[Cit]EGSPGADGPPGRDG-OH; N-terminus and C-terminus assumed)	> 40000	> 40000	–	–	DRB1*04:01 binding capacity, WT/cit ratio (HLA-DRB1*04:01; [7]): 1.0; DRB1*01:01 binding capacity, WT/cit ratio (HLA-DRB1*01:01; [7]): 1.0
CSCC[C@H](NC(=O)[C@@H](NC(=O)CNC(=O)[C@@H]1CCCN1C(=O)[C@H](CCC(N)=O)NC(=O)CNC(=O)[C@H](CCCNC(N)=O)NC(=O)[C@H](C)NC(=O)CNC(=O)[C@H](CCC(N)=O)NC(=O)[C@@H]1CCCN1C(=O)CN)C(C)C)C(=O)NCC(=O)N[C@@H](Cc1ccccc1)C(=O)N1CCC[C@H]1C(=O)O [GPQGAXGQPGVMGFP] (H-GPQGA[Cit]GQPGVMGFP-OH)	14900	64	–	–	–
GAQGLQGPRGLPGTP [Collagen 711 WT]	–	–	–	–	IC50 (HLA-DRB1*04:01; [5]): > 40000 nM; IC50 (HLA-DRB1*01:01; [6]): 352 nM
